In patent EP4670739A1, “ALBUMIN CONJUGATE, METHOD FOR PRODUCING SAME, AND COMPOSITION FOR TARGETING, DIAGNOSING, OR TREATING CANCER COMPRISING SAME” (Kytecbio Co., Ltd., priority 2023, dated 2024):

Assay: ROS production according to lysine concentration
Details: 10 µM B3 mixed with about 1.0 mM monomeric lysine, PBS pH 7.4, light of about 530 nm
Procedure: • i) 1.0 mM lysine (hereinafter, Lys) was mixed in PBS buffer solution (pH 7.4) and irradiated with light of about 530 nm. The fluorescence generated over time was measured using a Scinco FS-2, and results thereof are shown in FIG. 7A. • ii) The result of mixing 10 µM boron-containing compound B3 instead of the 1.0 mM lysine (Lys) is shown in FIG. 7B, iii) the result of mixing 10 µM boron-containing compound B3 and 0.1 mM lysine (Lys) instead of the 1.0 mM lysine (Lys) is shown in FIG. 7C, and iv) the result of mixing 10 µM boron-containing compound B3 and 1.0 mM lysine (Lys) instead of the 1.0 mM lysine (Lys) is shown in FIG. 7D.

Q: With `O=Cc1cc2ccccc2cc1NCc1ccccc1B(O)O` [B3] as the compound, how does the “reactive oxygen species generated” value read?
A: relatively large amount
